Like-named read-outs stand apart in the source and are kept apart here.
Legend:
KRAS (WT)::SOS1 = KRAS (WT)::SOS1 (Homo sapiens (Human), UniProt P01116, C118S); assay: KRAS::SOS1 AlphaScreen binding assay, KRAS WT
Excerpt: This assay can be used to examine the potency with which compounds according to the invention binding to (mutated) KRAS inhibit the protein-protein interaction between SOS1 and (mutated) KRAS e.g., KRAS WT, KRAS G12C, KRAS G12D, KRAS G12V, KRAS G13D. […] Low IC50 values in this assay setting are indicative of strong inhibition of protein-protein interaction between SOS1 and KRAS:
These assays measure the inhibitory effect of compounds on KRAS mutant protein-protein interactions using the Alpha Screen technology by Perkin Elmer.
The following (mutant) enzyme forms of KRAS and interacting proteins are used in these assays at the given concentrations: • KRAS (G12D) 1-169, N-terminal 6His-tag, C-terminal avi-tag (Xtal BioStructures, Inc.); final assay concentration 10 nM and SOS1 564-1049, N-terminal 229 GST-tag, TEV cleavage site (Viva Biotech Ltd); final assay concentration 5 nM; • KRAS (G12C) 1-169, N-terminal 6His-tag for purification, cleaved off, C-terminal avi-tag, biotinylated, mutations: C51S, C80L, C118S (in house); final assay concentration 7.5 nM and SOS1 564-1049, N-terminal 229 GST-tag, TEV cleavage site (Viva Biotech Ltd); final assay concentration 5 nM; • KRAS (G12V) 1-169, N-terminal 6His-tag for purification, cleaved off, C-terminal avi-tag, biotinylated, TEV cleavage site, mutation: C118S, GDP loaded (in house); final assay concentration 10 nM and SOS1 564-1049, N-terminal 229 GST-tag, TEV cleavage site (Viva Biotech Ltd); final assay concentration 10 nM; • KRAS (G13D) 1-169, N-terminal 6His-tag for purification, cleaved off, C-terminal avi-tag, biotinylated, TEV cleavage site, mutation: C118S, GDP loaded (in house); final assay concentration 10 nM and SOS1 564-1049, N-terminal 229 GST-tag, TEV cleavage site (Viva Biotech Ltd); final assay concentration 10 nM; • KRAS (WT) 1-169, N-terminal 6His-tag for purification, cleaved off, C-terminal avi-tag, biotinylated, TEV cleavage site, mutation: C118S, GDP loaded (in house); final assay concentration 10 nM and SOS1 564-1049, N-terminal 229 GST-tag, TEV cleavage site (Viva Biotech Ltd); final assay concentration 10 nM.
Test compounds dissolved in DMSO are dispensed onto assay plates (Proxiplate 384 PLUS, white, PerkinElmer; 6008289) using an Access Labcyte Workstation with the Labcyte Echo 55×. For the chosen highest assay concentration of 100 μM, 150 nL of compound solution are transferred from a 10 mM DMSO compound stock solution. A series of eleven fivefold dilutions per compound are transferred to the assay plate, compound dilutions are tested in duplicates. DMSO are added as backfill to a total volume of 150 nL.
The assays run on a fully automated robotic system in a darkened room below 100 Lux. To 150 nl of compound dilution 10 μl of a mix including KRAS mutant protein, SOS1 (final assay concentrations see above) and GDP nucleotide (Sigma G7127; final assay concentration 10 μM) in assay buffer (1×PBS, 0.1% BSA, 0.05% Tween 20) are added into columns 1-24.
After 30 minutes incubation time 5 μl of Alpha Screen bead mix in assay buffer are added into columns 1-23. Bead mix consists of AlphaLISA Glutathione Acceptor Beads (PerkinElmer, Cat No AL109) and AlphaScreen Streptavidin Donor Beads (PerkinElmer Cat No 6760002) in assay buffer at a final assay concentration of 10 μg/ml each.
Plates are kept at room temperature in a darkened incubator. After an additional 60 minutes incubation time the signal is measured in a PerkinElmer Envision HTS Multilabel Reader using the AlphaScreen specs from PerkinElmer.
Each plate contains up to 16 wells of a negative control depending on the dilution procedure (platewise or serial) (DMSO instead of test compound; with KRAS mutant::SOS1 GDP mix and bead mix; column 23) and 16 wells of a positive control (DMSO instead of test compound; with KRAS mutant::SOS1 GDP mix w/o bead mix; column 24).
As internal control known inhibitors of KRAS mutant::SOS1 interaction can be measured on each compound plate. […]

GP2D cells = assay: GP2D proliferation assay (120 h) (colorectal cancer, G12D); type: cell-based
In short: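 500 cells/well in DMEM + GlutaMAX + 10% FCS, exposed to a logarithmic compound dose series (DMSO-normalized) for 120 h. Viability read by CellTiter-Glo luminescence as percent of DMSO control, with an untreated T0 read at dosing; IC50 from four-parameter non-linear regression.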

MKN1 cells = assay: MKN1 CTG proliferation assay (120 h) (gastric cancer, wt amplified); type: cell-based
In short: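 MKN1 gastric cancer cells (200–500 per well, RPMI + 10% FCS) given a logarithmic compound dose series and incubated 120 h. Viability by CellTiter-Glo luminescence as percent of DMSO controls. IC50 by four-parameter non-linear regression.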

[1] = Homo sapiens, MKN-1, assay 3, CTG 120 h, read-out: MKN1 (assay 3) IC50
[2] = Homo sapiens, MKN-1, assay 1, CTG 120 h, read-out: MKN1 (assay 1) IC50
[3] = Homo sapiens, MKN-1, assay 2, CTG 120 h, read-out: MKN1 (assay 2) IC50

Sequence of KRAS (WT)::SOS1 (P01116 other isoform, or with tags, fused parts or gaps C118S): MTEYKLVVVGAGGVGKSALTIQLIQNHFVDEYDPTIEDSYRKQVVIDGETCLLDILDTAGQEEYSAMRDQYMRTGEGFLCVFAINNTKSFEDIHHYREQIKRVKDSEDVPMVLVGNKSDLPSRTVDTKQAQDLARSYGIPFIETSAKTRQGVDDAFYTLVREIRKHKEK

Row | Structure (SMILES) | IC50 (KRAS (WT)::SOS1) [nM] | IC50 (GP2D cells) [nM] | IC50 (MKN1 cells; [1]) [nM] | IC50 (MKN1 cells; assay 3, CTG 120 h, read-out: MKN1 (assay 3) IC50) [nM] | IC50 (MKN1 cells; [2]) [nM] | IC50 (MKN1 cells; [3]) [nM]
1 | C[C@H](Oc1cc(-c2cccc(C(N)=O)c2)nc(-c2noc3c2CCC[C@@]32CCCc3sc(N)c(C#N)c32)n1)[C@@H]1CCCN1C [II-133] | 8 | 301 | 391 | – | – | –
2 | C[C@H](Oc1cc(-n2ccc(C(=O)N[C@H]3CCOC3)n2)nc(-c2noc3c2CCC[C@@]32CCCc3sc(N)c(C#N)c32)n1)[C@@H]1CCCN1C [II-193] | 6 | – | – | 17 | – | –
3 | C[C@H](Oc1cc(-n2ccc(C(=O)N[C@@H]3CCOC3)n2)nc(-c2noc3c2CCC[C@@]32CCCc3sc(N)c(C#N)c32)n1)[C@@H]1CCCN1C [II-192] | 5 | 31 | 9 | – | 25 | 26
4 | C[C@H](Oc1nc(-c2noc3c2CCC[C@@]32CCCc3sc(N)c(C#N)c32)nc(N2CCNC3(CC3)C2)c1F)[C@@H]1C[C@@H](F)CN1C [II-155] | 4 | 1 | 633 | – | – | 284
5 | C[C@H](Oc1cc(N2CCNC3(COC3)C2)nc(-c2noc3c2CCC[C@@]32CCCc3sc(N)c(C#N)c32)n1)[C@@H]1C[C@@H](F)CN1C [II-150] | 3 | 1 | – | – | – | 32
6 | C[C@H](Oc1cc(-n2cc3c(n2)CNC3)nc(-c2noc3c2CCC[C@@]32CCCc3sc(N)c(C#N)c32)n1)[C@@H]1CCCN1C [II-168] | 3 | 12 | 176 | – | – | –
7 | C[C@H](Oc1nc(-c2noc3c2CCC[C@@]32CCCc3sc(N)c(C#N)c32)nc(N2C[C@H](C)NC3(CC3)C2)c1F)[C@@H]1C[C@@H](F)CN1C [II-157] | 5 | 2 | – | – | – | –
8 | C[C@H](Oc1cc(-n2cc(-c3cncs3)nn2)nc(-c2noc3c2CCC[C@@]32CCCc3sc(N)c(C#N)c32)n1)[C@@H]1CCCN1C [II-125] | 9 | – | – | – | – | –
9 | C[C@H](Oc1nc(-c2noc3c2CCC[C@@]32CCCc3sc(N)c(C#N)c32)nc(N2CCNC3(CC3)C2)c1Cl)[C@@H]1C[C@@H](F)CN1C [II-156] | 6 | 1 | – | – | – | –
10 | C[C@H](Oc1cc(-n2ccc(-c3cnccn3)n2)nc(-c2noc3c2CCC[C@@]32CCCc3sc(N)c(C#N)c32)n1)[C@@H]1CCCN1C [II-130] | 5 | 233 | 297 | – | 216 | –
11 | C[C@H](Oc1cc(-n2ccc(-c3cn(C4CCOCC4)nn3)n2)nc(-c2noc3c2CCC[C@@]32CCCc3sc(N)c(C#N)c32)n1)[C@@H]1CCCN1C [II-210] | 7 | – | 37 | – | – | –
12 | C[C@@H]1CN(c2nc(-c3noc4c3CCC[C@@]43CCCc4sc(N)c(C#N)c43)nc(O[C@@H](C)[C@@H]3C[C@@H](F)CN3C)c2F)CC2(CC2)N1 [II-158] | 4 | 9 | – | – | – | –
13 | C[C@H](Oc1cc(-n2cc3c(n2)CN(C)C3)nc(-c2noc3c2CCC[C@@]32CCCc3sc(N)c(C#N)c32)n1)[C@@H]1CCCN1C [II-174] | 4 | 3 | – | – | – | 341
14 | C[C@H](Oc1cc(N2CCN(C)C3(CC3)C2)nc(-c2noc3c2CCC[C@@]32CCCc3sc(N)c(C#N)c32)n1)[C@@H]1C[C@@H](F)CN1C [II-149] | 12 | 8 | – | – | – | 467
15 | COCCNC(=O)c1ccn(-c2cc(O[C@@H](C)[C@@H]3CCCN3C)nc(-c3noc4c3CCC[C@@]43CCCc4sc(N)c(C#N)c43)n2)n1 [II-195] | 3 | – | 22 | – | – | –
16 | C[C@H](Oc1cc(N2CCN[C@@H](C)C2)nc(-c2noc3c2CCC[C@@]32CCCc3sc(N)c(C#N)c32)n1)[C@@H]1CCCN1C [II-162] | 8 | 30 | 411 | – | – | –
17 | C[C@H](Oc1nc(-c2noc3c2CCC[C@@]32CCCc3sc(N)c(C#N)c32)nc(N2CCN(C)C3(CC3)C2)c1Cl)[C@@H]1C[C@@H](F)CN1C [II-176] | 31 | 50 | – | – | – | –
18 | C[C@H](Oc1cc(N2CCN(C)C3(CCOC3)C2)nc(-c2noc3c2CCC[C@@]32CCCc3sc(N)c(C#N)c32)n1)[C@@H]1C[C@@H](F)CN1C (stereo partly shown) [II-151] | 8 | 32 | – | – | – | –
19 | CO[C@@H]1C[C@@H]([C@H](C)Oc2cc(N3CCN(C)C4(CC4)C3)nc(-c3noc4c3CCC[C@@]43CCCc4sc(N)c(C#N)c43)n2)N(C)C1 [II-152] | 14 | 13 | – | – | – | –
20 | C[C@H](Oc1cc(N2CCN(C)C3(CC3)C2)nc(-c2noc3c2CCC[C@@]32CCCc3sc(N)c(C#N)c32)n1)[C@@H]1CCCN1C [II-171] | 7 | 5 | – | – | – | –
21 | C[C@H](Oc1cc(C2=CCNCC2)nc(-c2noc3c2CCC[C@@]32CCCc3sc(N)c(C#N)c32)n1)[C@@H]1CCCN1C [II-164] | 8 | 23 | 1070 | – | – | –
22 | C[C@H](Oc1cc(-n2cc3c(n2)CCN(C)C3)nc(-c2noc3c2CCC[C@@]32CCCc3sc(N)c(C#N)c32)n1)[C@@H]1CCCN1C [II-141] | 3 | 4 | – | – | – | –
23 | C[C@H](Oc1cc(-n2ccc(C3(O)COC3)n2)nc(-c2noc3c2CCC[C@@]32CCCc3sc(N)c(C#N)c32)n1)[C@@H]1CCCN1C [II-189] | 4 | – | 18 | – | 19 | –
24 | C[C@H](Oc1cc(N2CCNC3(CC3)C2)nc(-c2noc3c2CCC[C@@]32CCCc3sc(N)c(C#N)c32)n1)[C@@H]1C[C@@H](F)CN1C [II-165] | 5 | 1 | – | – | – | 427
25 | CO[C@H]1CCN(C)[C@@H]1[C@H](C)Oc1cc(-n2ccc(C(=O)N[C@@H](C)c3ccccn3)n2)nc(-c2noc3c2CCC[C@@]32CCCc3sc(N)c(C#N)c32)n1 [II-196] | 6 | – | 17 | – | – | –
26 | C[C@H](Oc1cc(N2CCN(C)C3(COC3)C2)nc(-c2noc3c2CCC[C@@]32CCCc3sc(N)c(C#N)c32)n1)[C@@H]1C[C@@H](F)CN1C [II-148] | 5 | 11 | – | – | – | –

— patent US20240174690A1, “ANNULATED 2-AMINO-3-CYANO THIOPHENES AND DERIVATIVES FOR THE TREATMENT OF CANCER” (BOEHRINGER INGELHEIM INTERNATIONAL GMBH, priority 2021, published 2024)
